From US11634425B2, “Pharmaceutical compounds” (priority 2019, dated 2023)
pEC50: −log10 of the molar value.

What was measured:
Cell cytotoxicity (CC50) = format: cell-based; settings: human; mean of at least two experiments
Description: (§1) Compounds were subjected to RSV plaque reduction assays according to the following protocol. Plaque EC50 and cell toxicity CC50 values are a mean of at least two experiments and figures are rounded to whole units.
(§2) Plates were scanned and analysed using the Immunospot S6 Macro analyser, which is equipped with BioSpot analysis software for counting immunostained plaques (virospots). Plaque counts were used to calculate % c infection relative to the mean of the plaque count in the virus control wells for RSV. The EC50 value was calculated as 50% reduction in signal, respectively, by interpolation of inhibition curves fitted with a 4-parameter nonlinear regression with a variable slope in Dotmatics. Plaque EC50 and cell toxicity CC50 values are a mean of at least two experiments and figures are rounded to whole units.

RSV A2 = experiment: RSV plaque reduction assay; format: cell-based, respiratory syncytial virus (RSV); settings: human respiratory syncytial virus, HepG2, Hep-G2 cells, mean of at least two experiments
Protocol: as §1
Hep-G2 cells (ECACC, 85011430) were passaged in flasks and seeded in 24-well plates in DMEM containing antibiotics and supplemented with 10% FBS. During inoculation and subsequent incubation, cells were cultured in DMEM containing 2% FBS. 100 plaque forming unit/well of RSV (RSV A2 ECACC, 0709161v) was mixed with eight serial dilutions of compound. Subsequently, 100 μL of the virus/compound mixtures was added to confluent Hep-G2 cell monolayers. The cells and virus/compound mixtures were incubated at 37° C. in a humidified 5% CO2 incubator for 2 h prior to removal of the inoculum and addition of 1 mL of overlay (DMEM containing 2% FBS and 0.8% CMC) containing compound dilutions. The cells and were incubated at 37° C. in a humidified 5% CO2 incubator for 2 days.
Cells were washed with PBS before adding 75/25% […] EtOH/MeOH, for 3 min. Fixative was removed and plates were washed with PBS. A pre-titrated amount of the primary antibody was added in 200 μL PBS/2% milk powder, and plates incubated for 90 min at 37° C. The plates were washed 3 times with PBS/0.05% Tween20 before addition of rabbit anti-goat horse radish peroxidase in 200 μL PBS/2% milk powder, and incubated for 1 h at 37° C. Following three wash steps with PBS/0.05% Tween20, 200 μL ready-to-use TrueBlue was added and plates were incubated at rt for 10-15 min before washing with water. After removal of water, plates were air-dried in the dark.
as §2

Structure (SMILES) | CC50 (Cell cytotoxicity (CC50)) | pEC50 (RSV A2)
O=C(N[C@H]1N=C(c2ccccc2)c2cccc(F)c2NC1=O)c1c(-c2ccccc2F)nc2ccc(N3CCOCC3)nn12 [Example 79, N-[(3S)-9-Fluoro-2-oxo-5-phenyl-1,3-dihydro-1,4-benzodiazepin-3-yl]-2-(2-fluorophenyl)-6-morpholin-4-ylimidazo[1,2-b]pyridazine-3-carboxamide] | > 25 µM | 7.59
O=C(N[C@H]1N=C(c2ccccc2)c2ccccc2NC1=O)c1c(-c2cncc(C3CC3)c2)nn2cccnc12 [Example 31, 2-(5-Cyclopropylpyridin-3-yl)-N-[(3S)-2-oxo-5-phenyl-1,3-dihydro-1,4-benzodiazepin-3-yl]pyrazolo[1,5-a]pyrimidine-3-carboxamide] | > 25 µM | 7.02
[2H]C([2H])([2H])Oc1ccc2nc(-c3ccc(CC)nc3)c(C(=O)N[C@H]3N=C(c4ccccc4)c4cccc(F)c4NC3=O)n2n1 [Example 123, 2-(6-Ethylpyridin-3-yl)-N-[(3S)-9-fluoro-2-oxo-5-phenyl-2,3-dihydro-1H-1,4-benzodiazepin-3-yl]-6-(^2H3)methoxyimidazo[1,2-b]pyridazine-3-carboxamide] | > 25 µM | 7.35
Cc1cncc(-c2nc3ccc(C)nn3c2C(=O)N[C@H]2N=C(c3ccccc3)c3cccc(F)c3NC2=O)c1 [Example 103, N-[(3S)-9-fluoro-2-oxo-5-phenyl-1,3-dihydro-1,4-benzodiazepin-3-yl]-6-methyl-2-(5-methylpyridin-3-yl)imidazo[1,2-b]pyridazine-3-carboxamide] | > 25 µM | 7.09
CCc1ccc(-c2nn3cccnc3c2C(=O)N[C@H]2N=C(c3ccccc3)c3ccccc3NC2=O)c(C)n1 [Example 56] | > 25 µM | 7.20
Cc1ccc(F)c(-c2nn3cccnc3c2C(=O)N[C@H]2N=C(c3ccccc3)c3cccc(F)c3NC2=O)c1 [Example 26, 2-(2-Fluoro-5-methylphenyl)-N-[(3S)-9-fluoro-2-oxo-5-phenyl-1,3-dihydro-1,4-benzodiazepin-3-yl]pyrazolo[1,5-a]pyrimidine-3-carboxamide] | 8.77 µM | 7.28
COc1ccc2nc(-c3ccccc3)c(C(=O)N[C@H]3N=C(c4ccccc4)c4ccccc4NC3=O)n2n1 [Example 111, 6-Methoxy-N-[(3S)-2-oxo-5-phenyl-1,3-dihydro-1,4-benzodiazepin-3-yl]-2-phenylimidazo[1,2-b]pyridazine-3-carboxamide] | > 25 µM | 7.32
Cc1ccn2nc(-c3ccccc3F)c(C(=O)N[C@H]3N=C(c4ccccc4)c4ccccc4NC3=O)c2n1 [Example 22, 2-(2-Fluorophenyl)-5-methyl-N-[(3S)-2-oxo-5-phenyl-1,3-dihydro-1,4-benzodiazepin-3-yl]pyrazolo[1,5-a]pyrimidine-3-carboxamide] | > 25 µM | 7.48
CC(C)Nc1ccc(-c2nn3cccnc3c2C(=O)N[C@H]2N=C(c3ccccc3)c3ccccc3NC2=O)cn1 [Example 73, N-[(3S)-2-oxo-5-phenyl-1,3-dihydro-1,4-benzodiazepin-3-yl]-2-[6-(propan-2-ylamino)pyridin-3-yl]pyrazolo[1,5-a]pyrimidine-3-carboxamide] | > 25 µM | 7.35
CCOc1ccc(-c2nn3cccnc3c2C(=O)N[C@H]2N=C(c3ccccc3)c3cccc(F)c3NC2=O)cn1 [Example 53, 2-(6-Ethoxypyridin-3-yl)-N-[(3S)-9-fluoro-2-oxo-5-phenyl-1,3-dihydro-1,4-benzodiazepin-3-yl]pyrazolo[1,5-a]pyrimidine-3-carboxamide] | > 25 µM | 7.01
CN1C[C@H]2C[C@@H]1CN2c1ccn2nc(-c3ccccc3F)c(C(=O)N[C@H]3N=C(c4ccccc4)c4cccc(F)c4NC3=O)c2n1 [Example 84, N-[(3S)-9-fluoro-2-oxo-5-phenyl-1,3-dihydro-1,4-benzodiazepin-3-yl]-2-(2-fluorophenyl)[(1R,4R)-5-methyl-2,5-diazabicyclo[2.2.1]heptan-2-yl]pyrazolo[1,5-a]pyrimidine-3-carboxamide] | 16.3 µM | 7.02
Cc1ccn2nc(-c3ccc(F)cc3F)c(C(=O)N[C@H]3N=C(c4ccccc4)c4ccccc4NC3=O)c2n1 [Example 35, 2-(2,4-Difluorophenyl)-5-methyl-N-[(3S)-2-oxo-5-phenyl-1,3-dihydro-1,4-benzodiazepin-3-yl]pyrazolo[1,5-a]pyrimidine-3-carboxamide] | > 25 µM | 7.54
O=C(N[C@H]1N=C(c2ccccc2)c2cccc(F)c2NC1=O)c1c(-c2ccccc2F)nc2ccc(N3CCC3)nn12 [Example 94, 6-(Azetidin-1-yl)-N-[(3S)-9-fluoro-2-oxo-5-phenyl-1,3-dihydro-1,4-benzodiazepin-3-yl]-2-(2-fluorophenyl)imidazo[1,2-b]pyridazine-3-carboxamide] | > 25 µM | 7.30
[2H]C([2H])([2H])Oc1ccc2nc(-c3ccccc3)c(C(=O)N[C@H]3N=C(c4ccccc4)c4ccccc4NC3=O)n2n1 [Example 112, N-[(3S)-2-oxo-5-phenyl-1,3-dihydro-1,4-benzodiazepin-3-yl]-2-phenyl-6-(trideuteriomethoxy)imidazo[1,2-b]pyridazine-3-carboxamide] | > 25 µM | 7.30
CCc1ccc(-c2nc3ccc(Cl)nn3c2C(=O)N[C@H]2N=C(c3ccccc3)c3cccc(F)c3NC2=O)cn1 [Example 117, 6-Chloro-2-(6-ethylpyridin-3-yl)-N-[(3S)-9-fluoro-2-oxo-5-phenyl-1,3-dihydro-1,4-benzodiazepin-3-yl]imidazo[1,2-b]pyridazine-3-carboxamide] | > 25 µM | 7.57
O=C(N[C@H]1N=C(c2ccccc2)c2cccc(F)c2NC1=O)c1c(-c2ccccc2)nc2ccc(N3CCOCC3)nn12 [Example 83, N-[(3S)-9-fluoro-2-oxo-5-phenyl-1,3-dihydro-1,4-benzodiazepin-3-yl]-6-morpholin-4-yl-2-phenylimidazo[1,2-b]pyridazine-3-carboxamide] | > 25 µM | 6.93
CCOc1ccc2nc(-c3ccc(CC)nc3)c(C(=O)N[C@H]3N=C(c4ccccc4)c4cccc(F)c4NC3=O)n2n1 [Example 122, 6-Ethoxy-2-(6-ethylpyridin-3-yl)-N-[(3S)-9-fluoro-2-oxo-5-phenyl-1,3-dihydro-1,4-benzodiazepin-3-yl]imidazo[1,2-b]pyridazine-3-carboxamide] | > 25 µM | 7.00
O=C(N[C@H]1N=C(c2ccccc2)c2ccccc2NC1=O)c1c(-c2ccc(N3CCCC3)cc2F)nn2cccnc12 [Example 45, 2-(2-Fluoro-4-pyrrolidin-1-ylphenyl)-N-[(3S)-2-oxo-5-phenyl-1,3-dihydro-1,4-benzodiazepin-3-yl]pyrazolo[1,5-a]pyrimidine-3-carboxamide] | > 25 µM | 6.99
Cc1ccc2nc(-c3cncc(F)c3)c(C(=O)N[C@H]3N=C(c4ccccc4)c4cccc(F)c4NC3=O)n2n1 [Example 102, N-[(3S)-9-fluoro-2-oxo-5-phenyl-1,3-dihydro-1,4-benzodiazepin-3-yl]-2-(5-fluoropyridin-3-yl)-6-methylimidazo[1,2-b]pyridazine-3-carboxamide] | > 19.2 µM | 6.98
CCNc1ccc(-c2nn3cccnc3c2C(=O)N[C@H]2N=C(c3ccccc3)c3ccccc3NC2=O)c(F)n1 [Example 65, 2-[6-(Ethylamino)-2-fluoropyridin-3-yl]-N-[(3S)-2-oxo-5-phenyl-1,3-dihydro-1,4-benzodiazepin-3-yl]pyrazolo[1,5-a]pyrimidine-3-carboxamide] | > 25 µM | 7.74
O=C(N[C@H]1N=C(c2ccccc2)c2cccc(F)c2NC1=O)c1c(-c2ccccc2F)nn2ccc(N3CCCC3)nc12 [Example 40, N-[(3S)-9-Fluoro-2-oxo-5-phenyl-1,3-dihydro-1,4-benzodiazepin-3-yl]-2-(2-fluorophenyl)-5-pyrrolidin-1-ylpyrazolo[1,5-a]pyrimidine-3-carboxamide] | > 25 µM | 7.29
COCCc1ccc(-c2nn3cccnc3c2C(=O)N[C@H]2N=C(c3ccccc3)c3cccc(F)c3NC2=O)cn1 [Example 51, 2-[6-(2-methoxyethyl)pyridin-3-yl]-N-[(3S)-9-fluoro-2-oxo-5-phenyl-1,3-dihydro-1,4-benzodiazepin-3-yl]pyrazolo[1,5-a]pyrimidine-3-carboxamide] | > 25 µM | 7.04
